52 compounds from ChEMBL document CHEMBL1201862, “PubChem BioAssay data set” (2004) can be followed below.

The structures appear in SMILES notation. Activity calls are given as the source filed them. Bounds are passed on as bounds.

Experiment [1] in a line: inhibitors of intracellular T. cruzi replication, confirmation, NIH3T3 host cells, beta-gal luminescence (AID 2044).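 Also: intracellular parasites grown in NIH/3T3 mouse fibroblasts as host cells; luminescent beta-galactosidase reporter signal from transgenic T. cruzi replicating inside host cells; inhibitors lower the luminescence signal.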 The class given is functional, cell-based.
The nature of experiment [2]: cytotoxicity toward NIH3T3 fibroblasts, dose response, counter-screen, cell-based, ATP luminescence, mouse fibroblasts (AID 2010).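 Also: cells exposed to compound for about 90 hours before reading.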 Type of experiment: functional.
Experiment [3] deals with Cytochrome P450 2C19 (Homo sapiens, UniProt P33261). Kind of experiment: Cytochrome panel assay with activity outcomes. Panel member name: p450-cyp2c19 Compounds with AC50 equal or less than 10 uM are considered active. The settings on record: read-out: AC50. The class given is functional.
Chain of Cytochrome P450 2C19 (P33261 whole entry): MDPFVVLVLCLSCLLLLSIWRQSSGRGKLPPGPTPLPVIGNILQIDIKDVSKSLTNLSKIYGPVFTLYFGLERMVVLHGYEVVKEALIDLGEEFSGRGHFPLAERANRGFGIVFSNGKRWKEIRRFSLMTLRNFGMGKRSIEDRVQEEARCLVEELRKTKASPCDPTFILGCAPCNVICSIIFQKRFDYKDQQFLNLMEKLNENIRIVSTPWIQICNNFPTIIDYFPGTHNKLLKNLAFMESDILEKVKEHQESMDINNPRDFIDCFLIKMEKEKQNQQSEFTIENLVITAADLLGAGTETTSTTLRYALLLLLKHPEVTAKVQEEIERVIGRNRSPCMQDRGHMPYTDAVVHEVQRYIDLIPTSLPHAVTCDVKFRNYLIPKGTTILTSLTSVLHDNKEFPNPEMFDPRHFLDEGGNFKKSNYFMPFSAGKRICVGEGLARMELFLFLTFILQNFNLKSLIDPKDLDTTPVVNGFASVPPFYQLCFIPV
Experiment [4] deals with T1, Heat shock factor protein 1 (Mus musculus, UniProt P38532).
T1 sequence (P38532 whole entry): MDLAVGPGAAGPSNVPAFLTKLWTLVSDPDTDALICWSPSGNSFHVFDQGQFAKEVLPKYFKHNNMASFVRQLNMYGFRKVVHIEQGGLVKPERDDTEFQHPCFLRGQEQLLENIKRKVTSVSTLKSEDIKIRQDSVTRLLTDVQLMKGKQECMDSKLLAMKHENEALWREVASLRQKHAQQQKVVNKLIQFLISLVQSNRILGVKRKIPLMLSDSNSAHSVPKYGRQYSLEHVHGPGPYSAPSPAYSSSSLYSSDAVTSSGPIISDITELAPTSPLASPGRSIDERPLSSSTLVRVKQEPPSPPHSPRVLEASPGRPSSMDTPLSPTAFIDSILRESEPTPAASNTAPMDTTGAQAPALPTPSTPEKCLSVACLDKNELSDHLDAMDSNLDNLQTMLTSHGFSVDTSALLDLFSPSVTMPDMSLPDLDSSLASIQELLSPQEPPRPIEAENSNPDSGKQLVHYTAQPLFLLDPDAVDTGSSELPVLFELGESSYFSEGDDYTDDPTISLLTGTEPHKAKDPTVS
Kind of experiment: HSF1 potentiators in luciferase reporter cells, confirmation, cell-based, NIH3T3, luminescence, dose retest (AID 435004).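 Also: stress induced by proteasome inhibitor MG132 added 30 min after compound; luciferase reporter driven by HSF1 response element in NIH3T3 cells; actives raise luminescence as potentiators of the MG132 stress response.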 The class given is functional.

The target in experiment [5] is T2, Streptokinase A (Streptococcus pyogenes serotype M1, UniProt P10520).
T2 sequence (P10520 whole entry): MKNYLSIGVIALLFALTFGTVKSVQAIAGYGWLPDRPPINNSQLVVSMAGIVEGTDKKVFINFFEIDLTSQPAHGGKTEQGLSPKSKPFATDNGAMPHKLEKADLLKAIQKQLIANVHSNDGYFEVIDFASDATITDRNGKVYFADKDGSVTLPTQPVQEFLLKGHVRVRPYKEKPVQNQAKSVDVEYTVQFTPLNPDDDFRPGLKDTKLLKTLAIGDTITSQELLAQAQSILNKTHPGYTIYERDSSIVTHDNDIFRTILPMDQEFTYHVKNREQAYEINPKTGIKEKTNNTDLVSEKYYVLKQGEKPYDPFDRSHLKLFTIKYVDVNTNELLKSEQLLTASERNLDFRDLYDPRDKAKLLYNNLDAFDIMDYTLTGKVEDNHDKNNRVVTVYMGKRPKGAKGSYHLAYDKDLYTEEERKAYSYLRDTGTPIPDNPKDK
Kind of experiment: S. pyogenes streptokinase expression inhibitors, potency, dose response, plasminogen activation absorbance, OD405 (AID 1914).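 Also: secreted streptokinase activity via plasminogen activation per viability signal from cell pellet.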 The class given is functional, Streptococcus pyogenes M1 GAS.

Experiment [6] is described as follows: HEp-2 cell cytotoxicity, dose response, cytotoxicity control for RSV inhibitor project, HTS (AID 2410). Type of experiment: functional. The settings on record: human respiratory syncytial virus.
For experiment [7], the system named is Streptococcus sp. 'group A'. Kind of experiment: growth inhibition of control SK(-) GAS strain, dose response, counter-screen for streptokinase expression inhibitor project, luminescence, kanamycin, BacTiterGlo, confirmation (AID 1900). The class given is functional, organism-based.
Experiment [8] has as its system Streptococcus. Kind of experiment: Group A Streptococcus viability loss, dose response, counter-screen for streptokinase expression inhibitor project, luminescence, BacTiterGlo (AID 1915).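 Also: potency for reduction of bacterial viability or growth.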 Type of experiment: functional, organism-based.

In the case of `CCN(CC)CCCNC(=O)c1ccc(OCC(=O)Nc2ccccc2C(F)(F)F)c(OC)c1`, the EC50 in experiment [1] was 1.95 µM (active); in experiment [2] it was > 30 µM (not active).

As for `O=C(Nc1ncc(Cc2cccc(C(F)(F)F)c2)s1)c1ccc(-c2cccc([N+](=O)[O-])c2)o1`, the EC50 was 1.73 µM (active) in experiment [1] and 9.52 µM (active) in experiment [2].

For `C#C[C@@]1(O)CC[C@@H]2[C@@H]3CCC4=CC(=O)CC[C@@H]4[C@H]3CC[C@]21CC`, in experiment [3], the AC50 is 0.0794 µM (inconclusive).

Take `COc1ccc(C2C(C(C)=O)=C(O)C(=O)N2c2ccc(C)cc2)cc1` (stereo not drawn): the EC50 in experiment [4] is > 260 µM (inactive).

On to `Cc1ccc(C)c(S(=O)(=O)N2CCN(CC(=O)Nc3cc(C)on3)CC2)c1`, for which the EC50 in experiment [4] is > 260 µM (inactive).

As to `COc1ccccc1NS(=O)(=O)c1cc(NC(=S)NCC2CCCO2)ccc1C` (stereo not drawn), in experiment [5], the EC50 is listed as > 150 µM (not active).

Turning to `Cc1cccc(C(=O)N2CCC(=O)N(C(COCc3ccc(Cl)cc3)Cc3ccccc3)CC2)c1` (stereo not drawn), the CC50 in experiment [6] was 19.6 µM (active).

In the case of `CC(Oc1ccc(Cl)cc1Cl)C(=O)NCCCCc1ccccc1` (stereo not drawn), the EC50 in experiment [4] is > 260 µM (inactive).

Regarding `Cc1ccccc1OCCCC(=O)Nc1ccccc1C(F)(F)F`, in experiment [4], the EC50 was > 260 µM (inactive).

Regarding `COc1ccc(-c2cc(-c3ccc(Cl)cc3)[nH]n2)c(O)c1`, the EC50 in experiment [5] is > 150 µM (not active); in experiment [7] it was 7.27 µM (active); in experiment [8] it was 9.14 µM (active).

For `Cc1nc(N2CCN(Cc3ccc4c(c3)OCO4)CC2)c2cc(-c3ccccc3)sc2n1`, the EC50 in experiment [5] was > 150 µM (not active); in experiment [7], 19.3 µM (active); in experiment [8] it was 112 µM (active).

Turning to `C=CCn1sc(N)c(C(=O)OCC)c1=S`, the CC50 in experiment [6] is 24 µM (active).

In the case of `N#CCCN1CCN(C(=S)c2ccc(-c3ccc(Cl)c(Cl)c3)o2)CC1`, the EC50 in experiment [4] was 3.72 µM (active).

Take `C=CCn1c(-c2ccc(Cl)cc2)ccc(C#N)c1=O`: the cytotoxic concentration (CC50) in experiment [6] was > 50 µM (active).

On to `CC(=O)c1cccc(S(=O)(=O)N2CCCC(c3nc(O)c4nnn(Cc5cccc(Cl)c5)c4n3)C2)c1` (stereo not drawn), for which the CC50 in experiment [6] is > 50 µM (active).

Turning to `CCNc1nc(NC(C)C)nc(N(C#N)C(C)C(=O)N(CC)CC)n1` (stereo not drawn), the 50% cytotoxic concentration (CC50) in experiment [6] was 28.8 µM (active).

Regarding `O=C(NC12CC3CC(CC(C3)C1)C2)c1ccc(-c2ccc(Br)cc2)o1`, the 50% effective concentration (EC50) in experiment [5] is 35.3 µM (active); in experiment [7], 4.59 µM (active); in experiment [8], 9.47 µM (active).

As to `COc1ccc(-c2ncc(CN3CCN(CCC(C)C)C(CCO)C3)cn2)cc1` (stereo not drawn), the EC50 in experiment [1] was 0.933 µM (active); in experiment [2] it was 12.3 µM (active).

As for `Cc1cc(OC(=O)c2ccccc2Br)cc(=O)n1C`, the concentration at half-maximal activity (AC50) in experiment [3] is 39.8 µM (inconclusive).

In the case of `COc1ccccc1OCc1nnc(SCCN2CCOCC2)o1`, in experiment [4], the EC50 is > 260 µM (inactive).

As for `COc1cc(C(=O)NCC(c2cccnc2)N2CCN(c3ccc(F)cc3)CC2)cc(OC)c1OC` (stereo not drawn), the half-maximal effective concentration (EC50) was 0.959 µM (active) in experiment [1] and > 30 µM (not active) in experiment [2].

With `Nc1c(Cl)cc(-c2csc(N3CCCC3c3nc4cc(Cl)c(Cl)cc4n3CCCO)n2)cc1Cl` (stereo not drawn), in experiment [6], the CC50 is 35.1 µM (active).

Turning to `COc1cc(C(=O)NCC(c2cccs2)N2CCc3ccccc32)cc(OC)c1OC` (stereo not drawn), in experiment [6], the CC50 was 18 µM (active).

`C=CCOc1ccc(-c2nc3c(c(=O)[nH]c(=O)n3Cc3ccccc3)n2CCCOC)cc1`: the EC50 in experiment [4] was > 260 µM (inactive).

In the case of `Cc1cc(C)cc(Nc2ccc([N+](=O)[O-])nc2[N+](=O)[O-])c1`, the results for the EC50 in experiment [1] and in experiment [2] were 1.63 µM (active) and > 60 µM (not active), respectively.

Take `Nc1nc(-c2cccnc2)nc2sc3c(c12)CCCC3`: the CC50 in experiment [6] was > 50 µM (active).

Take `OCCC1CN(Cc2cc3c(cc2Cl)OCO3)CCN1Cc1ccccc1` (stereo not drawn): the EC50 in experiment [1] was 1.21 µM (active); in experiment [2], > 60 µM (not active).

Turning to `Cc1ccccc1N=C(S)N(Cc1cccnc1)Cc1ccccc1Cl`, the EC50 in experiment [1] is 0.8 µM (active); in experiment [2] it was > 60 µM (not active).

As for `COc1ccc(C2CC(=O)c3c(C)nc(N4CCN(Cc5ccccc5)CC4)nc3C2)cc1OC` (stereo not drawn), the figures for the EC50 in experiment [1] and in experiment [2] were 1.85 µM (active) and > 60 µM (not active), respectively.

Turning to `COc1ccc(Cl)cc1C(=O)NNC(=S)NC(=O)c1cc(-c2ccc(Cl)cc2)nc2ccccc12`, the values for the EC50 in experiment [7] and in experiment [8] were 0.202 µM (active) and 6 µM (active), respectively.

For the compound `Cc1cc(OCCCn2ccnc2)ccc1C(C)C`, the results for the EC50 in experiment [1] and in experiment [2] were 1.99 µM (active) and > 60 µM (not active), respectively.

Consider `Cc1cc(-c2ccccc2)c2c(O)[nH]nc2n1`, for which the CC50 in experiment [6] is 48.2 µM (active).

On to `CCN(C(=O)c1cc2c(s1)-c1ccccc1OC2)c1cc(OC)ccc1OC`, for which, in experiment [6], the CC50 was 26.8 µM (active).

Regarding `COc1ccc(-c2ccc([C@H]3[C@@H]4C=CCC[C@@]4(C)C(=O)N3Cc3ccccc3)c(F)c2)cc1OC`, the EC50 in experiment [1] is 2.55 µM (active); in experiment [2] it was 37.1 µM (active).

Regarding `CC(C)(C)c1[nH]ncc1[N+](=O)[O-]`, the EC50 in experiment [4] was > 260 µM (inactive).

For `Cc1ccc2nc(-c3ccncc3)c(NC3CCCCC3)n2c1`, the EC50 in experiment [1] was 1.86 µM (active); in experiment [2] it was > 60 µM (not active).

Consider `C/C(=N\Nc1nc(C)cc(-c2ccccc2)n1)c1ccc(C)o1`, for which the EC50 in experiment [4] was > 260 µM (inactive).

Turning to `CCCC(=O)Nc1cc(-c2nn(C)c(=O)c3ccccc23)ccc1OC`, in experiment [4], the EC50 is > 260 µM (inactive).

As for `CCCC(CCC)C(=O)OC[N+](C)(C)CCOC(=O)C(O)(c1ccccc1)C1CCCC1` (stereo not drawn), the values for the EC50 in experiment [1] and in experiment [2] were 1.31 µM (active) and > 60 µM (not active), respectively.

Take `CC1(C)CC(=O)C(/C=N/c2cccnc2)=C(O)C1`: the EC50 in experiment [4] was 16.6 µM (active).

Regarding `CCN1CCN(C(CNS(=O)(=O)c2ccc(C)cc2)c2cccnc2)CC1` (stereo not drawn), the EC50 in experiment [5], in experiment [7] and in experiment [8] was > 150 µM (not active) in each case.

Turning to `Cc1ccccc1Oc1nc2c(C)cccn2c(=O)c1/C=C(\C#N)C(=O)Nc1c(C)n(C)n(-c2ccccc2)c1=O`, the EC50 in experiment [4] is 12.1 µM (active).

As for `COc1cccc(-c2c(C#N)c(N)nc3c2c(C)nn3-c2ccccc2)c1O`, in experiment [4], the EC50 is 57.9 µM (active).

Regarding `Cc1ccc(C)c(N2CCN(C(=O)CCC(=O)N3CCOc4ccc(Cl)cc43)CC2)c1`, the EC50 was 2.47 µM (active) in experiment [1] and > 60 µM (not active) in experiment [2].

For `COc1ccc(-n2c(=S)[nH]c3cc(C(=O)Nc4ccc(C)c(F)c4)ccc3c2=O)c(OC)c1`, the figures for the EC50 in experiment [5], in experiment [7] and in experiment [8] were > 150 µM (not active), 9.84 µM (active) and 14.8 µM (active), respectively.

`COc1ccccc1NS(=O)(=O)c1cc(NC(S)=NCC2CCCO2)ccc1C` (stereo not drawn): the EC50 in experiment [7] and in experiment [8] was > 150 µM (not active) each time.

With `CC(Oc1cccc(Cl)c1)C(=O)Nc1ccccc1N1CCCCC1` (stereo not drawn), the concentration for a half-maximal effect (EC50) in experiment [5] is 13.5 µM (active); in experiment [7], 9.74 µM (active); in experiment [8], 26.4 µM (active).

Turning to `Cc1sc(NC(=O)c2c(F)cccc2F)nc1-c1ccccc1`, the CC50 in experiment [6] was 43.2 µM (active).

`CCN(CCCC(=O)c1ccc(F)cc1)CCc1ccccc1`: the EC50 is 0.111 µM (active) in experiment [1] and > 60 µM (not active) in experiment [2].

As for `O=C(Nc1nc2c(s1)CN(Cc1ccccc1)CC2)c1c(F)cccc1F`, the CC50 in experiment [6] is 16.1 µM (active).

For the compound `Cc1ccc2nc(-c3ccncc3)c(NC3CCCC3)n2c1`, the results for the EC50 in experiment [1] and in experiment [2] were 2.29 µM (active) and > 60 µM (not active), respectively.

As to `C/C(=N\NC(=O)c1ccccc1N)c1ccc(NC(=O)Cc2ccccc2)cc1`, the 50% effective concentration (EC50) is > 150 µM (not active) in experiment [5], 3.07 µM (active) in experiment [7] and 16.3 µM (active) in experiment [8].
